Experimental data from patent publication US20160378909A1, “PROCESS FOR IDENTIFYING CULTURE CONDITIONS FOR A CELL OR ORGANISM” (GLAXOSMITHKLINE BIOLOGICALS SA, priority 2013, published 2016).
Structures can show the parent of a compound that is named as a salt. Where two headings read alike, the source gives them in different places.

System: Bordetella pertussis
Assay: microbe, parasite or virus in culture
Type: cell-based
Details: for activity at 2000 µM / activity at 1330 µM / activity at 6000 µg/mL / activity at 1 µg/mL / activity at 10 µg/mL / activity at 20000 µM / activity at 0.1 µg/mL / activity at 0.6 µg/mL / activity at 6 µg/mL: Bordetella pertussis
Experimental: Cells were harvested by centrifugation, washed twice with NaCl 0.9% (w/v), and resuspended in fresh medium (de novo minimal CDM; see composition in Table 1) at a theoretical OD650 nm of 0.5, as calculated from the OD650 nm of the culture before harvest. 20 μl of this cell suspension were used to inoculate each well of a 96-well microtiter plate filled with 180 μl of de novo minimal CDM. Only the inner wells of the plate were used for cultures, in order to minimize evaporation, and two controls were included, in which the supplement solution was replaced with water.
The plate was then incubated for 7 days at 35° C. in a Biotek Synergy H1 reader with constant shaking, and growth was automatically monitored every 10 minutes as OD650 nm.
The relative growth yield and growth rate for each supplement was then averaged over the three independent repeats, and the standard deviation was calculated.

[1] = 168 h, read-out: Relative yield Average, 2 mM in medium, max OD650 nm relative to water controls
[2] = 1 mM in medium, first generation, relative to water controls
[3] = 1 mM in medium, max OD650 nm relative to water controls
[4] = 168 h, read-out: Relative yield Average, 1 mg/L in medium, max OD650 nm relative to water controls
[5] = read-out: Relative growth rate Average, 1 mg/L in medium, first generation, relative to water controls
[6] = 168 h, read-out: Relative yield Average, 20 mM in medium, max OD650 nm relative to water controls
[7] = read-out: Relative growth rate Average, 2 mM in medium, first generation, relative to water controls
[8] = read-out: Relative growth rate Average, 20 mM in medium, first generation, relative to water controls

SMILES: O=C(O)CCC(=O)O [Succinic acid]
- activity at 2000 µM [1]: < 95%

SMILES: [Cl-].[Cl-].[Zn+2] [ZnCl2]
- Relative growth rate Average (10 mg/L in medium, first generation, relative to water controls): 103.27%

SMILES: N[C@@H](Cc1ccccc1)C(=O)O [L-Phenylalanine]
- activity at 1330 µM (168 h, read-out: Relative yield Average, 1.33 mM in medium, max OD650 nm relative to water controls): < 95%
- activity at 1330 µM (read-out: Relative growth rate Average, 1.33 mM in medium, first generation, relative to water controls): < 95%

SMILES: O.O.O.O.O.O.[Cl-].[Cl-].[Mg+2] [MgCl2•6H2O]
- Relative growth rate Average [2]: 99.38%
- Relative yield Average [3]: 102.26%
- Relative growth rate Average (10 mM in medium, first generation, relative to water controls): 106.39%
- Relative yield Average (10 mM in medium, max OD650 nm relative to water controls): 222.99%

SMILES: O.O.O.O.O.O.O.O=S(=O)([O-])[O-].[Zn+2] [ZnSO4•7H2O]
- Relative growth rate Average (1.89 mg/L in medium, first generation, relative to water controls): 91.58%
- Relative yield Average (1.89 mg/L in medium, max OD650 nm relative to water controls): 191.76%
- Relative growth rate Average (18.9 mg/L in medium, first generation, relative to water controls): 99.13%
- Relative yield Average (18.9 mg/L in medium, max OD650 nm relative to water controls): 163.55%

SMILES: OC[C@H]1O[C@@](CO)(O[C@H]2O[C@H](CO)[C@@H](O)[C@H](O)[C@H]2O)[C@@H](O)[C@@H]1O [Sucrose]
- activity at 6000 µg/mL (168 h, read-out: Relative yield Average, 6 g/L in medium, max OD650 nm relative to water controls): > 105%
- activity at 6000 µg/mL (read-out: Relative growth rate Average, 6 g/L in medium, first generation, relative to water controls): 95 to 105%

SMILES: Cc1ncc(C[n+]2csc(CCO)c2C)c(N)n1 [Thiamine HCl]
- activity at 1 µg/mL [4]: 95 to 105%
- activity at 10 µg/mL (168 h, read-out: Relative yield Average, 10 mg/L in medium, max OD650 nm relative to water controls): > 105%
- activity at 1 µg/mL [5]: 95 to 105%
- activity at 10 µg/mL (read-out: Relative growth rate Average, 10 mg/L in medium, first generation, relative to water controls): > 105%

SMILES: OCC(O)CO [Glycerol]
- activity at 2000 µM [1]: 95 to 105%
- activity at 20000 µM [6]: > 105%
- activity at 2000 µM [7]: 95 to 105%
- activity at 20000 µM [8]: < 95%

SMILES: O=c1cc[nH]c(=O)[nH]1 [Uracil]
- activity at 0.1 µg/mL (168 h, read-out: Relative yield Average, 0.1 mg/L in medium, max OD650 nm relative to water controls): 95 to 105%
- activity at 1 µg/mL [4]: 101%
- activity at 0.1 µg/mL (read-out: Relative growth rate Average, 0.1 mg/L in medium, first generation, relative to water controls): 95 to 105%
- activity at 1 µg/mL [5]: 94.8%

SMILES: C[N+](C)(C)CCO.[Cl-] [Choline chloride]
- activity at 0.6 µg/mL (168 h, read-out: Relative yield Average, 0.6 mg/L in medium, max OD650 nm relative to water controls): 95 to 105%
- activity at 6 µg/mL (168 h, read-out: Relative yield Average, 6 mg/L in medium, max OD650 nm relative to water controls): 95 to 105%
- activity at 0.6 µg/mL (read-out: Relative growth rate Average, 0.6 mg/L in medium, first generation, relative to water controls): 95 to 105%
- activity at 6 µg/mL (read-out: Relative growth rate Average, 6 mg/L in medium, first generation, relative to water controls): 95 to 105%

SMILES: O=C(O)CC(O)(CC(=O)O)C(=O)O [Citric acid monohydrate]
- activity at 2000 µM [1]: < 95%

SMILES: CSCC[C@H](N)C(=O)O [L-Methionine]
- activity at 20000 µM [6]: > 105%
- activity at 2000 µM [7]: > 105%
- activity at 20000 µM [8]: > 105%

SMILES: CC(=O)[O-].[Na+] [Sodium acetate]
- Relative growth rate Average (5 mM in medium, first generation, relative to water controls): 101.45%
- Relative yield Average (5 mM in medium, max OD650 nm relative to water controls): 99.15%
- Relative growth rate Average (50 mM in medium, first generation, relative to water controls): 71.40%
- Relative yield Average (50 mM in medium, max OD650 nm relative to water controls): 152.20%

SMILES: C[C@@H](O)[C@H](N)C(=O)O [L-Threonine]
- activity at 2000 µM [1]: 95 to 105%
- activity at 20000 µM [6]: < 95%
- activity at 2000 µM [7]: < 95%

SMILES: Cl.N [NH4Cl]
- Relative growth rate Average [2]: 98.56%
- Relative yield Average [3]: 104.80%
